The source of these data is patent US20170105910A1, “UV FILTER CAPSULE” (BASF SE, priority 2007, published 2017).

Structures are written as SMILES.

The series in a line: Solubility of Ethylhexyl Triazone in solvents (visual assessment). In kind it is physicochemical. The method, then: The solubility of Ethylhexyl Triazone in the systems indicated can be determined as follows:
The test substance is initially incorporated into the solvent (for example cosmetic emollient, as indicated in the table) at room temperature (about 20° C.-25° C.) with stirring in small beakers on a heatable magnetic stirrer (the stirring time here should not exceed about 30 min.). The assessment is carried out visually, i.e. it is checked whether a completely clear solution and without evident particles is present. The amounts, conditions and stirring times employed should be noted. If the substance is readily soluble, the concentration is increased by subsequent incorporation of further substance, for example by addition in 0.1 g steps with stirring. […] The assessment is carried out visually, if necessary with the aid of a microscope with lambda plate.

`CCCCC(CC)COC(=O)c1ccc(Nc2nc(Nc3ccc(C(=O)OCC(CC)CCCC)cc3)nc(Nc3ccc(C(=O)OCC(CC)CCCC)cc3)n2)cc1` (centres unmarked) [Ethylhexyl Triazone, 2,4,6-tris[anilino(p-carbo-2′-ethyl-1′-hexyloxy)]-1,3,5-triazine]: the “solubility at room temperature” value (in Spectrasolv DMDA, room temperature (20° C. to 25° C.)) is “about 55 % by weight”. For the same compound, the “Ethylhexyl Triazone solubility at 25° C.” value (solvent C12-13 Alkyl Lactate) is given as 22%, the “Ethylhexyl Triazone solubility at 25° C.” value (solvent Di-C12-13 Alkyl Tartrate) came out at 35%, the “Ethylhexyl Triazone solubility at 25° C.” value (solvent Dioctyl Malate) is given as 13% and the “Ethylhexyl Triazone solubility at 25° C.” value (solvent Spectrasolv DMDA) is listed as “about 55%”.
